Results reported in ChEMBL document CHEMBL1157625, “Design, synthesis and preliminary activity assay of 1,2,3,4-tetrahydroisoquinoline-3-carboxylic acid derivatives as novel Histone deacetylases (HDACs) inhibitors” (Bioorg Med Chem, 2010).

Columns and labels:
Histone deacetylase 8 = molecular target: T1, Histone deacetylase 8 (Homo sapiens, UniProt Q9BY41)
T1 sequence (Q9BY41 whole entry): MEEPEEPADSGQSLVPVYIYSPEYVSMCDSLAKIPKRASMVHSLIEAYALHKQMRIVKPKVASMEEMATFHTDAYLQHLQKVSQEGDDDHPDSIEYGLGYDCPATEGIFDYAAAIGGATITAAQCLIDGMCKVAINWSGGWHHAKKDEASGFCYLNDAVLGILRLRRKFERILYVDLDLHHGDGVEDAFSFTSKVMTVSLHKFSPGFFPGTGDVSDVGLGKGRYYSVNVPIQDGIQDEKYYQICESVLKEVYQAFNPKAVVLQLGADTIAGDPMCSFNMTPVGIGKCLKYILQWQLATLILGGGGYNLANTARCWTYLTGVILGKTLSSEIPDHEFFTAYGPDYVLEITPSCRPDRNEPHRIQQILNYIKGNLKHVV
Description: Inhibition of HDAC8 expressed in Escherichia coli assessed as Boc-Lys (acetyl)-AMC substrate hydrolysis by fluorimetric assay

SK-OV-3 = assay: Antiproliferative activity against human SKOV3 cells after 48 hrs by MTT assay; type: functional, cell-based; conditions: SK-OV-3, 48 h
HL-60 = assay: Antiproliferative activity against human HL60 cells after 48 hrs by MTT assay; type: functional, cell-based; conditions: HL-60, 48 h
HCT-116 = assay: Antiproliferative activity against human HCT116 cells after 48 hrs by MTT assay; type: functional, cell-based; conditions: HCT-116, 48 h

Q: Which IC50 (Histone deacetylase 8) does the source give for `Cc1cccc(NC(=O)[C@@H]2Cc3ccc(OCC(=O)NO)cc3CN2C(=O)OC(C)(C)C)c1` here?
A: 1.77 µM

Q: Which IC50 (Histone deacetylase 8) does the source give for `O=C(COc1ccc2c(c1)CN[C@H](C(=O)Nc1ccccc1)C2)NO` here?
A: 8.21 µM

Q: How did the IC50 (Histone deacetylase 8) turn out when `O=C(COc1ccc2c(c1)CN[C@H](C(=O)Nc1ccc(F)c(Cl)c1)C2)NO` was run?
A: 3.34 µM

Q: For `CC(C)(C)OC(=O)N1Cc2cc(OCC(=O)NO)ccc2C[C@H]1C(=O)NCc1ccccc1`, which IC50 (Histone deacetylase 8) is on record?
A: 3.41 µM

Q: How did the IC50 (Histone deacetylase 8) turn out when `CC(C)(C)NC(=O)[C@@H]1Cc2ccc(OCC(=O)NO)cc2CN1C(=O)OC(C)(C)C` was run?
A: 4.58 µM

Q: How did the IC50 (Histone deacetylase 8) turn out when `Cc1ccc(NC(=O)[C@@H]2Cc3ccc(OCC(=O)NO)cc3CN2)cc1` was run?
A: 3.82 µM

Q: With `CC(C)(C)NC(=O)[C@@H]1Cc2ccc(OCC(=O)NO)cc2CN1` as the compound, how does the IC50 (Histone deacetylase 8) read?
A: 12.2 µM

Q: For `CC(C)(C)OC(=O)N1Cc2cc(OCC(=O)NO)ccc2C[C@H]1C(=O)Nc1ccc(F)cc1`, which IC50 (Histone deacetylase 8) is on record?
A: 2.56 µM

Q: Which IC50 (Histone deacetylase 8) does the source give for `CC(C)(C)OC(=O)N1Cc2cc(OCC(=O)NO)ccc2C[C@H]1C(=O)Nc1ccc(-c2ccccc2)cc1` here?
A: 1.98 µM

Q: Which IC50 (Histone deacetylase 8) does the source give for `O=C(COc1ccc2c(c1)CN[C@H](C(=O)NCc1ccccc1)C2)NO` here?
A: 5.1 µM

Q: For `Cc1ccc(NC(=O)[C@@H]2Cc3ccc(OCC(=O)NO)cc3CN2)c(C)c1`, which IC50 (Histone deacetylase 8) is on record?
A: 3.39 µM

Q: With `CCCCCNC(=O)[C@@H]1Cc2ccc(OCC(=O)NO)cc2CN1C(=O)OC(C)(C)C` as the compound, how does the IC50 (Histone deacetylase 8) read?
A: 3.02 µM

Q: With `CC(C)(C)OC(=O)N1Cc2cc(OCC(=O)NO)ccc2C[C@H]1C(=O)NCCc1ccccc1` as the compound, how does the IC50 (Histone deacetylase 8) read?
A: 2.67 µM

Q: Which IC50 (Histone deacetylase 8) does the source give for `Cc1ccccc1NC(=O)[C@@H]1Cc2ccc(OCC(=O)NO)cc2CN1C(=O)OC(C)(C)C` here?
A: 4 µM

Q: For `Cc1ccc(NC(=O)[C@@H]2Cc3ccc(OCC(=O)NO)cc3CN2C(=O)OC(C)(C)C)cc1`, which IC50 (Histone deacetylase 8) is on record?
A: 1.65 µM

Q: How did the IC50 (Histone deacetylase 8) turn out when `O=C(COc1ccc2c(c1)CN1C(=O)N(c3ccc(-c4ccccc4)cc3)C(=O)[C@@H]1C2)NO` was run?
A: > 50 µM

Q: Which IC50 (Histone deacetylase 8) does the source give for `CC(C)(C)OC(=O)N1Cc2cc(OCC(=O)NO)ccc2C[C@H]1C(=O)Nc1ccc(F)c(Cl)c1` here?
A: 1.55 µM

Q: Which IC50 (Histone deacetylase 8) does the source give for `Cc1cccc(NC(=O)[C@@H]2Cc3ccc(OCC(=O)NO)cc3CN2)c1` here?
A: 3.62 µM

Q: With `CCCCCCNC(=O)[C@@H]1Cc2ccc(OCC(=O)NO)cc2CN1` as the compound, how does the IC50 (Histone deacetylase 8) read?
A: 5.77 µM

Q: Which IC50 (Histone deacetylase 8) does the source give for `Cc1ccccc1NC(=O)[C@@H]1Cc2ccc(OCC(=O)NO)cc2CN1` here?
A: 4.13 µM

Q: For `Cc1ccc(NC(=O)[C@@H]2Cc3ccc(OCC(=O)NO)cc3CN2C(=O)OC(C)(C)C)c(C)c1`, which IC50 (Histone deacetylase 8) is on record?
A: 3.78 µM

Q: For `O=C(COc1ccc2c(c1)CN[C@H](C(=O)NCCc1ccccc1)C2)NO`, which IC50 (Histone deacetylase 8) is on record?
A: 4.07 µM

Q: For `CCCCCCNC(=O)[C@@H]1Cc2ccc(OCC(=O)NO)cc2CN1C(=O)OC(C)(C)C`, which IC50 (Histone deacetylase 8) is on record?
A: 4.42 µM

Q: For `COc1ccc(NC(=O)[C@@H]2Cc3ccc(OCC(=O)NO)cc3CN2)cc1`, which IC50 (Histone deacetylase 8) is on record?
A: 5.57 µM

Q: `CC(C)(C)OC(=O)N1Cc2cc(OCC(=O)NO)ccc2C[C@H]1C(=O)Nc1cccc(Cl)c1` was tested. Which IC50 (SK-OV-3) did it give?
A: 680 µM

Q: What about the IC50 (HL-60) of the same compound?
A: 960 µM

Q: What about the IC50 (Histone deacetylase 8) of the same compound?
A: 1.17 µM

Q: What about the IC50 (HCT-116) of the same compound?
A: 490 µM

Q: Which IC50 (SK-OV-3) does the source give for `COc1ccc(NC(=O)[C@@H]2Cc3ccc(OCC(=O)NO)cc3CN2C(=O)OC(C)(C)C)cc1` here?
A: 420 µM

Q: And the IC50 (HL-60)?
A: > 2120 µM

Q: And the IC50 (Histone deacetylase 8)?
A: 1 µM

Q: And the IC50 (HCT-116)?
A: 48 µM

Q: `CCCCCNC(=O)[C@@H]1Cc2ccc(OCC(=O)NO)cc2CN1` was tested. Which IC50 (Histone deacetylase 8) did it give?
A: 3.54 µM

Q: Which IC50 (Histone deacetylase 8) does the source give for `CC(C)(C)OC(=O)N1Cc2cc(OCC(=O)NO)ccc2C[C@H]1C(=O)Nc1ccccc1` here?
A: 1.29 µM

Q: `O=C(COc1ccc2c(c1)CN(C(=O)OCc1ccccc1)[C@H](C(=O)NCCc1ccccc1)C2)NO` was tested. Which IC50 (SK-OV-3) did it give?
A: > 2000 µM

Q: And the IC50 (HL-60)?
A: > 2000 µM

Q: What about the IC50 (Histone deacetylase 8) of the same compound?
A: 0.58 µM

Q: And the IC50 (HCT-116)?
A: 370 µM

Q: Which results are given for `O=C(COc1ccc2c(c1)CN[C@H](C(=O)Nc1cccc3ccccc13)C2)NO`?
A: IC50 (SK-OV-3): 750 µM; IC50 (HL-60): 980 µM; IC50 (Histone deacetylase 8): 1.06 µM; IC50 (HCT-116): 170 µM

Q: For `O=C(COc1ccc2c(c1)CN1C(=O)N(c3ccccc3)C(=O)[C@@H]1C2)NO`, which IC50 (Histone deacetylase 8) is on record?
A: > 50 µM

Q: With `O=C(COc1ccc2c(c1)CN[C@H](C(=O)Nc1ccc(-c3ccccc3)cc1)C2)NO` as the compound, how does the IC50 (Histone deacetylase 8) read?
A: 2.21 µM

Q: How did the IC50 (Histone deacetylase 8) turn out when `O=C(COc1ccc2c(c1)CN[C@H](C(=O)Nc1cccc(Cl)c1)C2)NO` was run?
A: 3.2 µM

Q: `CC(C)(C)OC(=O)N1Cc2cc(OCC(=O)NO)ccc2C[C@H]1C(=O)Nc1cccc2ccccc12` was tested. Which IC50 (Histone deacetylase 8) did it give?
A: 4.25 µM

Q: `O=C(COc1ccc2c(c1)CN[C@H](C(=O)Nc1ccc(F)cc1)C2)NO` was tested. Which IC50 (Histone deacetylase 8) did it give?
A: 3.23 µM
